Measured values published in patent US20050136118A1, “Distribution and preparation of germicidal compositions” (priority 2003, published 2005).
“And” between values parts separate entries of the source, which are not always exact repeats. Identical values can stand only once. Like-named read-outs stand apart in the source and are kept apart here.

How the values were obtained:
Bacillus subtilis spores [1] = assay: spore suspension test, killing of Bacillus subtilis spores; assay type: cell-based; conditions: for Log Reduction/mL, 4 hr: 4 hr exposure; for Log Reduction/mL, 24 hr: 24 hr exposure; for Log Reduction/mL (3 hr, 20° C., pH = 8): 3 hr exposure; for Log Reduction/mL, 8 hr: 8 hr exposure
Bacillus subtilis spores [2] = conditions: cited from earlier work
Mycobacterium bovis BCG = conditions: at least 0.25% by weight phthalaldehyde as sole active ingredient, 20° C.; cited from earlier work
[3] = cited from earlier work
[4] = pH range of 3 to 9; cited from earlier work
[5] = storage stability of phthalaldehyde solution (loss by Cannizzaro reaction); assay type: physicochemical; conditions: about 11 weeks
Excerpt: Overall, the Cannizzaro reaction generally leads to loss of phthalaldehyde and a decrease in the germicidal efficacy of the solution. While a pH of from 6 to 10, or 7.5 to 9 generally enhances the efficacy of the phthalaldehyde-carbonate solution, the higher or alkaline pH also generally promotes the Cannizzaro reaction. […] However, about 14% of the phthalaldehyde may be lost if the same solution is stored for about 11 weeks at a pH of 9, at room temperature. Even more of the phthalaldehyde may be converted if the storage period is longer, if the temperature is higher, or if the pH is higher than 9.

[6] = test system: Clostridium sporogenes spores; conditions: cited from earlier work
Bacillus subtilis spores [7] = conditions: cited from earlier work; remark: listed apart in the source
spores = conditions: 0.3% (w/v) NaHCO3 added; cited from earlier work
[8] = 20° C., composition and pH per label
[9] = 0.25% phthalaldehyde as sole active ingredient, 20° C.

Molecule: [Br-].[Na+] [1000 mM NaBr, sodium bromide]
- Log Reduction/mL, 4 hr (Bacillus subtilis spores [1]; [8]): 0.0 log/mL
- Log Reduction/mL, 24 hr (Bacillus subtilis spores [1]; 20° C.): 0.1 log/mL

Molecule: O=CCCCC=O [2.4% Glutaraldehyde, glutaraldehyde]
- effect of salt concentration on sporicidal activity (Bacillus subtilis spores [2]; salt ranging from 0 to 1M): increasing with an increase in concentration of sodium bicarbonate or sodium chloride
- Log Reduction/mL (3 hr, 20° C., pH = 8) (Bacillus subtilis spores [1]): <1.1 log/mL

Molecule: CC(=O)OO [peracetic acid]
- effect of salt concentration on sporicidal activity (Bacillus subtilis spores [2]; salt ranging from 0 to 1M): not affected

Molecule: Oc1ccccc1 [phenol]
- effect of salt concentration on sporicidal activity (Bacillus subtilis spores [2]): not affected

Molecule: OO [hydrogen peroxide]
- effect of salt concentration on sporicidal activity (Bacillus subtilis spores [2]; salt ranging from 0 to 1M): not affected

Molecule: [F-].[K+] [1000 mM KF, potassium fluoride]
- Log Reduction/mL, 8 hr (Bacillus subtilis spores [1]; 20° C.): 0.0 log/mL
- Log Reduction/mL, 24 hr (Bacillus subtilis spores [1]; 20° C.): 0.1 log/mL
- Log Reduction/mL (3 hr, 20° C., pH = 8) (Bacillus subtilis spores [1]): 0.0 log/mL

Molecule: [Cl-].[Na+] [1000 mM NaCl, sodium chloride]
- Log Reduction/mL, 24 hr (Bacillus subtilis spores [1]; 20° C.): 0.2 log/mL

Molecule: [I-].[K+] [1000 mM KI, potassium iodide]
- Log Reduction/mL (3 hr, 20° C., pH = 8) (Bacillus subtilis spores [1]): 0.0 log/mL

Molecule: O=Cc1ccccc1C=O [0.3% OPA, phthalaldehyde]
- time to kill all Mycobacterium bovis BCG in contact (high-level disinfection) (Mycobacterium bovis BCG): ≤ 10 min
- solubility in water [3]: about 5 % by weight
- storage stability of single-component compositions [4]: excellent stability
- loss of phthalaldehyde on storage ([5]; pH 7 or lower, room temperature to about 40° C.): without a noticeable loss
- phthalaldehyde lost on storage ([5]; pH 9, room temperature): about 14%
- time for sporicidal activity [6, 9]: 24 h
- time to achieve sterilization ([6]; 1.0% phthalaldehyde): 10 h
- time for sporicidal activity (Bacillus subtilis spores [7]; [9]): 24 h
- time to achieve sterilization (Bacillus subtilis spores [7]; 1.0% phthalaldehyde): 10 h
- Log Reduction/mL, 2 hr (Bacillus subtilis spores [1]; 20° C., 2 hr exposure, composition and pH per label): 0.4 log/mL
- Log Reduction/mL, 6 hr (Bacillus subtilis spores [1]; 20° C., 6 hr exposure): 0.7 log/mL
- Log Reduction/mL, 8 hr (Bacillus subtilis spores [1]; 20° C.): ~0.6 log/mL
- Log Reduction/mL (3 hr, 20° C., pH = 8) (Bacillus subtilis spores [1]): 0.10 log/mL
- Log Reduction/mL (20° C., 4 hrs), [NaHCO3], 63 mM (Bacillus subtilis spores [1]; 4 hrs, labelled solution additionally contains 63 mM NaHCO3): 1.5 log/mL and 1.4 log/mL
- Log Reduction/mL (20° C., 4 hrs), [Phosphate], 63 mM (Bacillus subtilis spores [1]; 4 hrs, labelled solution additionally contains 63 mM phosphate): 0.7 log/mL
- Log Reduction/mL (20° C., 4 hrs), [NaF], 400 mM (Bacillus subtilis spores [1]; 4 hrs, labelled solution additionally contains 400 mM NaF): 4.7 log/mL
- Log Reduction/mL (20° C., 4 hrs), [NaF], 0 mM (Bacillus subtilis spores [1]; 4 hrs, no NaF added to the labelled solution): 0.4 log/mL
- Log Reduction/mL (20° C., 4 hrs), [NaHCO3], 0 mM (Bacillus subtilis spores [1]; 4 hrs, no NaHCO3): 0.5 log/mL
- Log Reduction/mL (20° C., 4 hrs), [Phosphate], 0 mM (Bacillus subtilis spores [1]; 4 hrs, no phosphate): 0.4 log/mL

Molecule: CCCC=O [butyraldehyde]
- effect of addition of NaHCO3 on sporicidal action (spores): did not affect

Molecule: [F-].[Li+] [100 mM LiF, lithium fluoride]
- Log Reduction/mL, 24 hr (Bacillus subtilis spores [1]; 20° C.): 0.0 log/mL

Molecule: cupric ascorbate
- effect of salt concentration on sporicidal activity (Bacillus subtilis spores [2]; salt ranging from 0 to 1M): not affected

Molecule: O=CC=O [glyoxal]
- effect of addition of NaHCO3 on sporicidal action (spores): did not affect

Molecule: OCl [sodium hypochlorite]
- effect of salt concentration on sporicidal activity (Bacillus subtilis spores [2]; salt ranging from 0 to 1M): not affected

Molecule: [F-].[Na+] [1000 mM NaF, sodium fluoride]
- Log Reduction/mL, 8 hr (Bacillus subtilis spores [1]; 20° C.): 0.0 log/mL

Molecule: [I-].[Na+] [1000 mM NaI, sodium iodide]
- Log Reduction/mL, 4 hr (Bacillus subtilis spores [1]; [8]): 0.0 log/mL
- Log Reduction/mL, 8 hr (Bacillus subtilis spores [1]; 20° C.): 0.0 log/mL
- Log Reduction/mL, 24 hr (Bacillus subtilis spores [1]; 20° C.): 0.1 log/mL
